According to paper PMC10969742, “A Phase I Study of the Oral Dual-Acting Pan-PI3K/mTOR Inhibitor Bimiralisib in Patients with Advanced Solid Tumors” (Cancers, 2024):

Test system: advanced solid tumors
Test: Efficacy: objective tumor response per RECIST 1.1
Format: in vivo, human
Method: Efficacy of treatment was determined by measuring reported lesions at baseline and after every 2 cycles.

[1] = PR patient, head and neck squamous cancer, NOTCH1T1997M, intermittent schedule A 200 mg

Nc1cc(C(F)(F)F)c(-c2nc(N3CCOCC3)nc(N3CCOCC3)n2)cn1 [bimiralisib, 5-(4,6-Dimorpholino-1,3,5-triazin-2-yl)-4-(trifluoromethyl)pyridin-2-amine]
Best Overall Response: Complete response (CR), Number of Patients (All Schedules, n = 70): 0 n (%) | Best Overall Response: Missing (response could not be assessed), Number of Patients (All Schedules, n = 70): 16 (22.9%) n (%) | Best Overall Response: Non-CR/Non-PD, Number of Patients (All Schedules, n = 70): 4 (5.7%) n (%) | Best Overall Response: Partial response, Number of Patients (All Schedules, n = 70): 1 (1.4%) n (%) | Best Overall Response: Progressive disease (PD), Number of Patients (All Schedules, n = 70): 19 (27.1%) n (%) | Best Overall Response: Stable disease, Number of Patients (All Schedules, n = 70): 30 (43%) n (%) | Best Overall Response: Complete response (CR), Number of Patients (Continuous (n = 21)): 0 n (%) | Best Overall Response: Missing (response could not be assessed), Number of Patients (Continuous (n = 21)): 9 (42.9%) n (%) | Best Overall Response: Non-CR/Non-PD, Number of Patients (Continuous (n = 21)): 0 n (%) | Best Overall Response: Partial response, Number of Patients (Continuous (n = 21)): 0 n (%) | Best Overall Response: Progressive disease (PD), Number of Patients (Continuous (n = 21)): 7 (33.3%) n (%) | Best Overall Response: Stable disease, Number of Patients (Continuous (n = 21)): 5 (23.8%) n (%) | Best Overall Response: Complete response (CR), Number of Patients (Intermittent A, n = 25): 0 n (%) | Best Overall Response: Missing (response could not be assessed), Number of Patients (Intermittent A, n = 25): 5 (20%) n (%) | Best Overall Response: Non-CR/Non-PD, Number of Patients (Intermittent A, n = 25): 1 (4%) n (%) | Best Overall Response: Partial response, Number of Patients (Intermittent A, n = 25): 1 (4%) n (%) | Best Overall Response: Progressive disease (PD), Number of Patients (Intermittent A, n = 25): 6 (24%) n (%) | Best Overall Response: Stable disease, Number of Patients (Intermittent A, n = 25): 12 (48%) n (%) | Best Overall Response: Complete response (CR), Number of Patients (Intermittent B, n = 24): 0 n (%) | Best Overall Response: Missing (response could not be assessed), Number of Patients (Intermittent B, n = 24): 2 (8.3%) n (%) | Best Overall Response: Non-CR/Non-PD, Number of Patients (Intermittent B, n = 24): 3 (12.5%) n (%) | Best Overall Response: Partial response, Number of Patients (Intermittent B, n = 24): 0 n (%) | Best Overall Response: Progressive disease (PD), Number of Patients (Intermittent B, n = 24): 6 (25%) n (%) | Best Overall Response: Stable disease, Number of Patients (Intermittent B, n = 24): 13 (54.2%) n (%) | Duration of response [1]: 8.4 months | Reduction in sum of target lesions per RECIST 1.1 [1]: 85% | Time to response [1]: 45 days | Patients with PR as best overall response (all 70 patients): 1.4% | Complete response (CR) (all patients): No patient achieved CR | Patients with SD (all patients, 30 patients): 43.0% | Number of partial responses (all patients, head and neck squamous cancer patient with NOTCH1T1997M mutation): one | Patients with SD (continuous dosing): 23.8% | Best overall response of single patient (head and neck squamous cancer, loss of function NOTCH1T1997M mutation, intermittent schedule A 200 mg): partial response | Patients with SD (intermittent schedule A): 48.0% | Patients with SD (intermittent schedule B): 54.2%
